Data: the NIST ThermoML archive (doi:10.1007/s10765-006-0114-6)

Settings: Fluid (supercritical or subcritical phases), vibrating plate method

[Ar] [argon]
Settings | mass density [kg/m3] | viscosity [mPa·s]
323.16 K, 7006 kPa | 107.17 | 0.02744
323.16 K, 13877 kPa | 213.45 | 0.02979
323.16 K, 20899 kPa | 316.3 | 0.03257
323.16 K, 27679 kPa | 408.2 | 0.0352
323.16 K, 34459 kPa | 489.8 | 0.0382
323.16 K, 41249 kPa | 561.2 | 0.0415
323.16 K, 48119 kPa | 624.2 | 0.0448
323.16 K, 54885 kPa | 678.5 | 0.0481
323.16 K, 61690 kPa | 726.2 | 0.0512
323.16 K, 68312 kPa | 767.5 | 0.0542
348.15 K, 6978 kPa | 97.69 | 0.02904
348.15 K, 17496 kPa | 241.15 | 0.03308
348.15 K, 27653 kPa | 368.7 | 0.0358
348.15 K, 34469 kPa | 444.9 | 0.0381
348.15 K, 41288 kPa | 513.1 | 0.0407
348.15 K, 48154 kPa | 574.3 | 0.0434
348.15 K, 54879 kPa | 627.8 | 0.0463
348.15 K, 61690 kPa | 676.3 | 0.049
348.15 K, 68529 kPa | 719.8 | 0.051
398.11 K, 7360 kPa | 88.47 | 0.0292
398.11 K, 13876 kPa | 165.12 | 0.03138
398.11 K, 27719 kPa | 316.2 | 0.0362
398.11 K, 34448 kPa | 382.2 | 0.0386
398.11 K, 41294 kPa | 443.6 | 0.0417
398.11 K, 48140 kPa | 499.6 | 0.0441
398.11 K, 54949 kPa | 550.4 | 0.0466
398.11 K, 61785 kPa | 596.9 | 0.0491
423.11 K, 7008 kPa | 79.27 | 0.03113
423.11 K, 7272 kPa | 82.13 | 0.02996
423.11 K, 14124 kPa | 157.84 | 0.03214
423.11 K, 14381 kPa | 160.69 | 0.03398
423.11 K, 21056 kPa | 231.04 | 0.0342
423.11 K, 21065 kPa | 231.06 | 0.0361
423.11 K, 27779 kPa | 297.59 | 0.0381
423.11 K, 27786 kPa | 297.92 | 0.0359
423.11 K, 34529 kPa | 359.8 | 0.0403
423.11 K, 34605 kPa | 361 | 0.0376
423.11 K, 41249 kPa | 417.7 | 0.0398
423.11 K, 48189 kPa | 472.3 | 0.0418
423.11 K, 48197 kPa | 472.3 | 0.0421
423.11 K, 55018 kPa | 521.5 | 0.0444
423.11 K, 61834 kPa | 566.5 | 0.0467
423.11 K, 68620 kPa | 608 | 0.0493
